# In patent US20040076590A1, “Antibacterial toothpaste and mouthwash formulations” (priority 2002, published 2004):
# How the values were obtained:
# [1] = test system: Stearns strain of B. anthracis; type: cell-based, Bacillus anthracis
# [2] = test system: Ames strain of B. anthracis; type: cell-based, Bacillus anthracis
# [3] = test system: Six strains of Bacillus species; assay: Nathans Agar Well Diffusion technique, 3 replicate assays; type: cell-based; details: for average zone of inhibition: average over Bacillus strains tested
# S. aureus = assay: d-limonene inoculation assay (phenol-coefficient), subculture at 24/48/72 hr; type: cell-based, Staphylococcus aureus; parameters: key: NG = no growth; details: >10^5 CFU/ml in 2 ml d-limonene
# S. epidermidis = assay: as above; type: cell-based, Staphylococcus epidermidis; parameters: key: NG = no growth; details: >10^5 CFU/ml in 2 ml d-limonene
# E. faecalis = assay: as above; type: cell-based, Enterococcus faecalis; parameters: key: NG = no growth; details: >10^5 CFU/ml in 2 ml d-limonene
# E. faecium = assay: as above; type: cell-based, Enterococcus faecium; parameters: key: NG = no growth; details: >10^5 CFU/ml in 2 ml d-limonene
# E. coli = assay: as above; type: cell-based, Escherichia coli; parameters: key: NG = no growth; details: >10^5 CFU/ml in 2 ml d-limonene
# Ent. cloacae = type: cell-based, Enterobacter cloacae; parameters: key: NG = no growth
# K. pneumoniae = assay: d-limonene inoculation assay (phenol-coefficient), subculture at 24/48/72 hr; type: cell-based, Klebsiella pneumoniae; parameters: key: NG = no growth; details: >10^5 CFU/ml in 2 ml d-limonene
# S. marcescens = type: cell-based, Serratia marcescens; parameters: key: NG = no growth
# P. aeruginosa = assay: d-limonene inoculation assay (phenol-coefficient), subculture at 24/48/72 hr; type: cell-based, Pseudomonas aeruginosa; parameters: key: NG = no growth; details: >10^5 CFU/ml in 2 ml d-limonene
# Ac. baum/haemo = assay: as above; type: cell-based, Acinetobacter baummii/haemolyticus; parameters: key: NG = no growth; details: >10^5 CFU/ml in 2 ml d-limonene
# S. maltophilia = type: cell-based, Stenotrophomonas maltophila; parameters: key: NG = no growth
# Streptococcus pyogenes = type: cell-based
# Streptococcus mutans = type: cell-based
# [4] = test system: other beta hemolytic streptococci; type: cell-based
smiles,measurement,setting,value
"O=[N+]([O-])[O-].[Ag+] [AgNO3, silver nitrate]",average inhibition zone,[1],18 mm
same,zone of inhibition,[2],16 mm
same,average zone of inhibition,[3],16 mm
C/C(=C\C(=O)OCCCCCCCCC(=O)O)C[C@@H]1OC[C@H](C[C@@H]2O[C@H]2[C@@H](C)[C@H](C)O)[C@@H](O)[C@H]1O [Bactroban],average inhibition zone,[1],45 mm
same,susceptibility of the strain to the product,[1],susceptible
same,susceptibility of the strain to the product,[2],susceptible
same,zone of inhibition,[2],35 mm
same,average zone of inhibition,[3],46 mm
"NC(=O)N/N=C/c1ccc([N+](=O)[O-])o1 [Furacin, nitrofurazone]",average inhibition zone,[1],33 mm
same,average zone of inhibition,[3],35 mm
"OCl [NaOCl, sodium hypochlorite]",susceptibility of the strain to the product,[1],susceptible to all products tested except
same,zone of inhibition,[2],no zones of inhibition
same,average zone size,"[3]; only inhibited P. polymyxa, B. sphaericus and B. cereus",16 mm
C=C(C)[C@H]1CC=C(C)CC1 [d-limonene],Growth at 24 hr,S. aureus; 24 hr,NG*
same,Growth at 48 hr,S. aureus; 48 hr,NG
same,Growth at 72 hr,S. aureus; 72 hr,NG
same,Growth at 24 hr,S. epidermidis; 24 hr,NG
same,Growth at 48 hr,S. epidermidis; 48 hr,NG
same,Growth at 72 hr,S. epidermidis; 72 hr,NG
same,Growth at 24 hr,E. faecalis; 24 hr,NG
same,Growth at 48 hr,E. faecalis; 48 hr,NG
same,Growth at 72 hr,E. faecalis; 72 hr,NG
same,Growth at 24 hr,E. faecium; 24 hr,NG
same,Growth at 48 hr,E. faecium; 48 hr,NG
same,Growth at 72 hr,E. faecium; 72 hr,NG
same,Growth at 24 hr,E. coli; 24 hr,NG
same,Growth at 48 hr,E. coli; 48 hr,NG
same,Growth at 72 hr,E. coli; 72 hr,NG
same,Growth at 24 hr,Ent. cloacae; 24 hr,NG
same,Growth at 48 hr,Ent. cloacae; 48 hr,NG
same,Growth at 72 hr,Ent. cloacae; 72 hr,NG
same,Growth at 24 hr,K. pneumoniae; 24 hr,NG
same,Growth at 48 hr,K. pneumoniae; 48 hr,NG
same,Growth at 72 hr,K. pneumoniae; 72 hr,NG
same,Growth at 24 hr,S. marcescens; 24 hr,NG*
same,Growth at 48 hr,S. marcescens; 48 hr,NG
same,Growth at 72 hr,S. marcescens; 72 hr,NG
same,Growth at 24 hr,P. aeruginosa; 24 hr,NG
same,Growth at 48 hr,P. aeruginosa; 48 hr,NG
same,Growth at 72 hr,P. aeruginosa; 72 hr,NG
same,Growth at 24 hr,Ac. baum/haemo; 24 hr,NG
same,Growth at 48 hr,Ac. baum/haemo; 48 hr,NG
same,Growth at 72 hr,Ac. baum/haemo; 72 hr,NG
same,Growth at 24 hr,S. maltophilia; 24 hr,NG
same,Growth at 48 hr,S. maltophilia; 48 hr,NG
same,Growth at 72 hr,S. maltophilia; 72 hr,NG
same,average inhibition zone,[1],30 mm
same,zone of inhibition,[2],21 mm
same,average zone of inhibition,[3],21 mm
same,eradication of the pathogen,Streptococcus pyogenes,effective in eradicating
same,eradication of the pathogen,Streptococcus mutans,effective in eradicating
same,eradication of the pathogen,[4],effective in eradicating
NCc1ccc(S(N)(=O)=O)cc1 [mafenide acetate],average inhibition zone,[1],38 mm
same,susceptibility of the strain to the product,[1],susceptible
same,susceptibility of the strain to the product,[2],susceptible
same,zone of inhibition,[2],34 mm
same,average zone of inhibition,[3],36 mm
